Results as given in patent publication US9777001B2 (priority 2014, dated 2017).
Structures can show the parent of a compound that is named as a salt.

Legend:
human Factor XIa = human Factor XIa (Homo sapiens, UniProt P03951); assay: biochemical; details: purified human Factor XIa, substrate S-2366, HEPES buffer pH 7.4
human plasma kallikrein = human plasma kallikrein (Homo sapiens, UniProt P03952); assay: biochemical; details: purified human plasma kallikrein, substrate S-2302, sodium phosphate buffer pH 7.5
Sequence of human plasma kallikrein (P03952 391-638 limits assumed): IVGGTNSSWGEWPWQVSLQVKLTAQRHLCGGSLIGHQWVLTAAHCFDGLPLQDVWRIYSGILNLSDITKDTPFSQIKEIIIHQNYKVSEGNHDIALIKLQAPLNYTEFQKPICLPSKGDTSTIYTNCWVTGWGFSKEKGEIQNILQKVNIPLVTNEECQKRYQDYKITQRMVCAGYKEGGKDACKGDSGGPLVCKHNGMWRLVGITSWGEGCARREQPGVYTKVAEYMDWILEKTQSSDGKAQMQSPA
Sequence of human plasma kallikrein (P03952 20-390 partner limits assumed): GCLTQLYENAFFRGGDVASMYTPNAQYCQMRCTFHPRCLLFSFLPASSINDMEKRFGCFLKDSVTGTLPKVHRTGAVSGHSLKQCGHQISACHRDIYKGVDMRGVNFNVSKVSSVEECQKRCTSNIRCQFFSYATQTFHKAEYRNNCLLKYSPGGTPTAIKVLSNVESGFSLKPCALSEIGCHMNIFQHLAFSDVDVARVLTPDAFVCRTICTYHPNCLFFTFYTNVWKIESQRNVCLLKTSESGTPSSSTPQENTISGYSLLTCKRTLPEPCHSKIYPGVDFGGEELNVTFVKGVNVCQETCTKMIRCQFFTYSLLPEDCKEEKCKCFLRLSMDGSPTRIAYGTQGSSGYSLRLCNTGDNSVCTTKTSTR

Sequence of human Factor XIa (P03951 388-625 limits assumed): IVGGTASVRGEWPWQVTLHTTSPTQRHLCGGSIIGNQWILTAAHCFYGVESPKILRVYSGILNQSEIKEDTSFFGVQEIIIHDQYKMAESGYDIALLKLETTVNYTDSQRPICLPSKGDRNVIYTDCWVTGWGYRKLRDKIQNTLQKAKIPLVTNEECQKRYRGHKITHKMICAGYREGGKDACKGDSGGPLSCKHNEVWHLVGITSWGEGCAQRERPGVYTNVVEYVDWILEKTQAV
Sequence of human Factor XIa (P03951 19-387 partner limits assumed): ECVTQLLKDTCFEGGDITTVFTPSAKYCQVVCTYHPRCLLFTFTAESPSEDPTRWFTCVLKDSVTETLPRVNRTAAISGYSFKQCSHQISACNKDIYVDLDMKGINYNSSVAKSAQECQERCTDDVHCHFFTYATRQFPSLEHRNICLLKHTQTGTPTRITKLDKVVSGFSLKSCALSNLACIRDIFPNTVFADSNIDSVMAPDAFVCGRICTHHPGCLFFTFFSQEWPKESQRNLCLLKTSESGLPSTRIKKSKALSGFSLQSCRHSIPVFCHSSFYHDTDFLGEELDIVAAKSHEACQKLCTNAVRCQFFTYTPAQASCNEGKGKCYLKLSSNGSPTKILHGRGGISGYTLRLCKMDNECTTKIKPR

Structure (SMILES) | Ki (human Factor XIa) | Ki (human plasma kallikrein)
C[C@@H]1CCC[C@H](n2cnc(-c3cc(Cl)ccc3-n3cc(C(F)(F)F)nn3)cc2=O)c2cc(ccn2)-c2ccc(CO)cc2NC1=O [Example 37, (10R,14S)-14-(4-{5-chloro-2-[4-(trifluoromethyl)-1H-1,2,3-triazol-1-yl]phenyl}-6-oxo-1,6-dihydropyrimidin-1-yl)-5-(hydroxymethyl)-10-methyl-8,16-diazatricyclo[13.3.1.0^2,7]nonadeca-1(19),2(7),3,5,15,17-hexaen-9-one trifluoroacetate] | 0.18 nM | 18 nM
C[C@@H]1CCC[C@H](n2cnc(-c3cc(Cl)ccc3-n3cc(C(F)(F)F)nn3)cc2=O)c2cc(ccn2)-c2ccc(C(N)=O)cc2NC1=O [Example 76, (10R,14S)-14-(4-{5-chloro-2-[4-(trifluoromethyl)-1H-1,2,3-triazol-1-yl]phenyl}-6-oxo-1,6-dihydropyrimidin-1-yl)-10-methyl-9-oxo-8,16-diazatricyclo [13.3.1.0^2,7]nonadeca-1(19),2(7),3,5,15,17-hexaene-5-carboxamide] | 0.44 nM | 36 nM
Cc1ccc(-n2cc(C(F)(F)F)nn2)c(-c2cc(=O)n([C@H]3CCC[C@@H](C)C(=O)Nc4ccccc4-c4ccnc3c4)cn2)c1 [Example 81, (10R,14S)-10-methyl-14-(4-{5-methyl-2[4-(trifluoromethyl)-1H-1,2,3-triazol-1-yl]phenyl}-6-oxo-1,6-dihydropyrimidin-1-yl)-8,16-diazatricyclo [13.3.1.0^2,7]nonadeca-1(19),2(7),3,5,15,17-hexaen-9-one] | 0.63 nM | 66 nM
Cc1ccc(-n2cc(C(F)(F)F)nn2)c(-c2cc(=O)n([C@H]3CCC[C@@H](C)C(=O)Nc4cc(C#N)ccc4-c4ccnc3c4)cn2)c1 [Example 82, (10R,14S)-10-methyl-14-(4-{5-methyl-2-[4-(trifluoromethyl)-1H-1,2,3-triazol-1-yl]phenyl}-6-oxo-1,6-dihydropyrimidin-1-yl)-9-oxo-8,16-diazatricyclo [13.3.1.0^2,7]nonadeca-1(19),2(7),3,5,15,17-hexaene-5-carbonitrile] | 1.9 nM | 176 nM
C[C@@H]1CCC[C@H](n2cnc(-c3cc(Cl)ccc3-n3cc(Cl)nn3)cc2=O)c2cc(ccn2)-c2ccc(OC(F)F)cc2NC1=O [Example 93, (10R,14S)-14-{4-[5-chloro-2-(4-chloro-1H-1,2,3-triazol-1-yl)phenyl]-6-oxo-1,6-dihydropyrimidin-1-yl}-5-(difluoromethoxy)-10-methyl-8,16-diazatricyclo [13.3.1.0^2,7]nonadeca-1(19),2(7),3,5,15,17-hexaen-9-one trifluoroacetate] | 100 nM | 4000 nM
C[C@@H]1CCC[C@H](n2cnc(-c3cc(Cl)ccc3-n3cc(C(F)(F)F)nn3)cc2=O)c2cc(ccn2)-c2c(Cl)cccc2NC1=O [Example 105, (10R,14S)-3-chloro-14-(4-{5-chloro-2-[4-(trifluoromethyl)-1H-1,2,3triazol-1-yl]phenyl}-6-oxo-1,6-dihydropyrimidin-1-yl)-10-methyl-8,16-diazatricyclo[13.3.1.0^2,7]nonadeca-1(19),2(7),3,5,15,17-hexaen-9-one] | 0.41 nM | –
COc1ccc(-n2cc(C(F)(F)F)nn2)c(-c2cc(=O)n([C@H]3CCC[C@@H](C)C(=O)Nc4ccc(F)cc4-c4cncc3c4)cn2)c1 [Example 107, (10R,14S)-4-Fluoro-14-(4-{5-methoxy-2-[4-(trifluoromethyl)-1H-1,2,3-triazol-1-yl]phenyl}-6-oxo-1,6-dihydropyrimidin-1-yl)-10-methyl-8,17-diazatricyclo[13.3.1.0^2,7]nonadeca-1(19),2(7),3,5,15,17-hexaen-9-one] | 142 nM | 1400 nM
C[C@@H]1CCC[C@H](n2cnc(-c3cc(Cl)ccc3-n3cc(Cl)nn3)cc2=O)c2ccnc(c2)-c2ccc(C#N)cc2NC1=O [Example 112, (10R,14S)-14-{4-[5-chloro-2-(4-chloro-1H-1,2,3-triazol-1-yl)phenyl]-6-oxo-1,6-dihydropyrimidin-1-yl}-10-methyl-9-oxo-8,18-diazatricyclo [13.3.1.0^2,7]nonadeca-1(19),2(7),3,5,15,17-hexaene-5-carbonitrile] | 0.22 nM | 19 nM
C[C@@H]1CCC[C@H](n2cnc(-c3cc(Cl)ccc3-c3csnn3)cc2=O)c2cc(ccn2)-c2cc(F)ccc2NC1=O [Example 117, (10R,14S)-14-{4-[5-chloro-2-(1,2,3-thiadiazol-4-yl)phenyl]-6-oxo-1,6-dihydropyrimidin-1-yl}-4-fluoro-10-methyl-8,16-diazatricyclo[13.3.1.0^2,7]nonadeca-1(19),2(7),3,5,15,17-hexaen-9-one] | 2.7 nM | –
C[C@@H]1CCC[C@H](n2cnc(-c3cc(Cl)cc4cnn(C)c34)cc2=O)c2cc(ccn2)-c2ccccc2NC1=O [Example 119, (10R,14S)-14-[4-(5-chloro-1-methyl-1H-indazol-7-yl)-6-oxo-1,6-dihydropyrimidin-1-yl]-10-methyl-8,16-diazatricyclo[13.3.1.0^2,7]nonadeca-1(19),2(7),3,5,15,17-hexaen-9-one] | 100 nM | –
C[C@@H]1CCC[C@H](n2cnc(-c3c(-n4cc(C(F)F)nn4)ccc(Cl)c3F)cc2=O)c2cc(ccn2)-c2cc(F)ccc2NC1=O [Example 134, (10R,14S)-14-(4-{3-chloro-6-[4-(difluoromethyl)-1H-1,2,3-triazol-1-yl]-2-fluorophenyl}-6-oxo-1,6-dihydropyrimidin-1-yl)-4-fluoro-10-methyl-8,16-diazatricyclo [13.3.1.0^2,7]nonadeca-1(19),2(7),3,5,15,17-hexaen-9-one trifluoroacetate] | 0.16 nM | –
C[C@@H]1CCC[C@H](n2cnc(-c3cc(Cl)ccc3-n3cc(Cl)nn3)cc2=O)c2cc(ccn2)-c2cc(F)ccc2NC1=O [Example 140, (10R,14S)-14-{4-[5-chloro-2-(4-chloro-1H-1,2,3-triazol-1-yl)phenyl]-6-oxo-1,6-dihydropyrimidin-1-yl}-4-fluoro-10-methyl-8,16-diazatricyclo[13.3.1.0^2,7]nonadeca-1(19),2(7),3,5,15,17-hexaen-9-one trifluoroacetate] | 0.1 nM | –
C[C@@H]1CCC[C@H](n2cnc(-c3c(-n4cc(Cl)nn4)ccc(Cl)c3F)cc2=O)c2cc(ccn2)-c2cc(F)ccc2NC1=O [Example 142, (10R,14S)-14-{4-[3-chloro-6-(4-chloro-1H-1,2,3-triazol-1-yl)-2-fluorophenyl]-6-oxo-1,6-dihydropyrimidin-1-yl}-4-fluoro-10-methyl-8,16-diazatricyclo [13.3.1.0^2,7]nonadeca-1(19),2(7),3,5,15,17-hexaen-9-one trifluoroacetate] | 1 nM | 7 nM
C[C@@H]1CCC[C@H](n2cnc(-c3c(C(F)(F)F)ccc(Cl)c3F)cc2=O)c2cc(ccn2)-c2cc(F)ccc2NC1=O [Example 143, (10R,14S)-14-{4-[3-chloro-2-fluoro-6-(trifluoromethyl)phenyl]-6-oxo-1,6-dihydropyrimidin-1-yl}-4-fluoro-10-methyl-8,16-diazatricyclo[13.3.1.0^2,7]nonadeca-1(19),2(7),3,5,15,17-hexaen-9-one trifluoroacetate] | 17 nM | –
C[C@H]1CCC[C@H](n2cnc(-c3cc(Cl)ccc3-n3cc(C(F)(F)F)nn3)cc2=O)c2ccnc(c2)-c2cc(F)ccc2NC1=O [Example 145, (10S,14S)-14-(4-{5-chloro-2-[4-(trifluoromethyl)-1H-1,2,3-triazol-1-yl]phenyl}-6-oxo-1,6-dihydropyrimidin-1-yl)-4-fluoro-10-methyl-8,18-diazatricyclo[13.3.1.0^2,7]nonadeca-1(19),2,4,6,15,17-hexaen-9-one] | 1.6 nM | 100 nM
C[C@@H]1CCC[C@H](n2cnc(-c3cc(Cl)ccc3-n3cc(C#N)nn3)cc2=O)c2cc(ccn2)-c2cc(F)ccc2NC1=O [Example 148, 1-(4-chloro-2-{1-[(10R,14S)-4-fluoro-10-methyl-9-oxo-8,16-diazatricyclo [13.3.1.0^2,7]nonadeca-1(19),2(7),3,5,15,17-hexaen-14-yl]-6-oxo-1,6-dihydropyrimidin-4-yl}phenyl)-1H-1,2,3-triazole-4-carbonitrile trifluoroacetate] | 0.1 nM | –
COc1ccc(Cl)cc1-c1cc(=O)n([C@H]2CCC[C@@H](C)C(=O)Nc3ccc(F)cc3-c3ccnc2c3)cn1 [Example 150, (10R,14S)-14[4-(5-chloro-2-methoxyphenyl)-6-oxo-1,6-dihydropyrimidin-1-yl]-4-fluoro-10-methyl-8,16-diazatricyclo[13.3.1.0^2,7]nonadeca-1(19),2(7),3,5,15,17-hexaen-9-one trifluoroacetate] | 310 nM | –
